The values below come from patent US20170334899A1, “AMINO-SUBSTITUTED ISOTHIAZOLES” (Bayer Pharma Aktiengesellschaft, priority 2014, published 2017).

The assay deals with human cervical tumor cell line HeLa (ATCC CCL-2). The experiment in a line: SAC-Formation - Nocodazole-Induced Assay. It is filed as cell-based. The note with it: Homo sapiens, HeLa, 24 h, HeLa cells, nocodazole 0.1 μg/ml together with test compound, decrease of mitotic cells (phospho-histone H3 Ser10). The gist of the method: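 HeLa cells, plated overnight, were treated 24 h at 37 °C with nocodazole (0.1 μg/ml final) plus test compound (0.005–20 μM, 0.5% DMSO) added at the same time. After fixation, anti-phospho-histone H3 Ser10 and Hoechst staining gave the mitotic cell fraction by imaging. Values came from four-parameter Hill fits.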
Consider `Cc1nsc(Nc2cnc3ccccc3n2)c1C(=O)Nc1ccc(Oc2cccnc2)nc1` [Example 231, 3-methyl-N-[6-(pyridin-3-yloxy)pyridin-3-yl]-5-(quinoxalin-2-ylamino)-1,2-thiazole-4-carboxamide], for which the IC50 amounted to 58 nM.

Take `Cc1nsc(Nc2cnc3ccccc3n2)c1C(=O)Nc1ccc(C(=O)OC(C)(C)C)cc1` [Example 181, tert-butyl 4-({[3-methyl-5-(quinoxalin-2-ylamino)-1,2-thiazol-4-yl]carbonyl}amino)benzoate]: the IC50 was 260 nM.

For `Cc1nsc(Nc2cnc3ccccc3n2)c1C(=O)Nc1ccc(C(=O)O)cc1` [Example 187, 4-({[3-methyl-5-(quinoxalin-2-ylamino)-1,2-thiazol-4-yl]carbonyl}amino)benzoic acid], the IC50 was 2200 nM.

For the compound `CNC(=O)c1ccc(NC(=O)c2c(C)nsc2Nc2cnc3ccccc3n2)cc1F` [Example 207, N-[3-fluoro-4-(methylcarbamoyl)phenyl]-3-methyl-5-(quinoxalin-2-ylamino)-1,2-thiazole-4-carboxamide], the IC50 was 200 nM.

Regarding `Cc1nsc(Nc2cncc(C(F)(F)F)n2)c1C(=O)Nc1ccc(OCCCNC(=O)OC(C)(C)C)nc1` [Example 190, tert-butyl {3-[(5-{[(3-methyl-5-{[6-(trifluoromethyl)pyrazin-2-yl]amino}-1,2-thiazoL-4-yl)carbonyl]amino}pyridin-2-yl)oxy]propyl}carbamate], the IC50 turned out to be 75 nM.

As for `Cc1nsc(Nc2cncc(C(F)(F)F)n2)c1C(=O)Nc1ccc(OC2CCN(CCF)CC2)c(F)c1` [Example 223, N-(3-fluoro-4-{[1-(2-fluoroethyl)piperidin-4-yl]oxy}phenyl)-3-methyl-5-{[6-(trifluoromethyl)pyrazin-2-yl]amino}-1,2-thiazole-4-carboxamide], the IC50 was 180 nM.

As to `Cc1nsc(Nc2cnc3ccccc3n2)c1C(=O)Nc1ccc(OC2CCN(CC(F)F)CC2)nc1` [Example 20, N-(6-{[1-(2,2-difluoroethyl)piperidin-4-yl]oxy}pyridin-3-yl)-3-methyl-5-(quinoxalin-2-ylamino)-1,2-thiazole-4-carboxamide], the IC50 is 53 nM.

In the case of `CC(=O)Nc1cc(NC(=O)c2c(C)nsc2Nc2cnccn2)ccc1F` [Example 205, N-(3-acetamido-4-fluorophenyl)-3-methyl-5-(pyrazin-2-ylamino)-1,2-thiazole-4-carboxamide], the IC50 was 6000 nM.

For `Cc1nsc(Nc2cnc(C(F)(F)F)cn2)c1C(=O)Nc1ccc(OCC2CCN(C(=O)OC(C)(C)C)CC2)nc1` [Example 227, tert-butyl 4-{[(5-{[(3-methyl-5-{[5-(trifluoromethyl)pyrazin-2-yl]amino}-1,2-thiazol-4-yl)carbonyl]amino}pyridin-2-yl)oxy]methyl}piperidine-1-carboxylate], the IC50 was 58 nM.

On to `Cc1nsc(Nc2cnc(C(F)(F)F)cn2)c1C(=O)Nc1ccc(OCCNC(=O)OC(C)(C)C)c(F)c1` [Example 215, tert-butyl [2-(2-fluoro-4-{[(3-methyl-5-{[5-(trifluoromethyl)pyrazin-2-yl]amino}-1,2-thiazol-4-yl)carbonyl]amino}phenoxy)ethyl]carbamate], for which the IC50 was 210 nM.

Turning to `Cc1nsc(Nc2cnc3ccccc3n2)c1C(=O)Nc1ccc(NCC2CCN(C(=O)OC(C)(C)C)CC2)nc1` [Example 238, tert-butyl 4-({[5-({[3-methyl-5-(quinoxalin-2-ylamino)-1,2-thiazol-4-yl]carbonyl}amino)pyridin-2-yl]amino}methyl)piperidine-1-carboxylate], the IC50 was 3500 nM.

On to `Cc1nsc(Nc2cncc(C(F)(F)F)n2)c1C(=O)Nc1ccc(F)c(C(N)=O)c1` [Example 204, N-(3-carbamoyl-4-fluorophenyl)-3-methyl-5-{[6-(trifluoromethyl)pyrazin-2-yl]amino}-1,2-thiazole-4-carboxamide], for which the IC50 turned out to be 490 nM.
